# Reference: the supplement of paper PMC10307832
# Experiments:
# Assay in all cases: relative viability (nuclei count vs DMSO), 5 days (fraction); higher = more cells survive
# Vemurafenib + Dasatinib = compound: CCCS(=O)(=O)Nc1ccc(F)c(C(=O)c2c[nH]c3ncc(-c4ccc(Cl)cc4)cc23)c1F [Vemurafenib] + Cc1nc(Nc2ncc(C(=O)Nc3c(C)cccc3Cl)s2)cc(N2CCN(CCO)CC2)n1 [Dasatinib] (partner 0.075 µM)
# Procedure, shortened: (§1)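 Lung cancer cell lines, seeded in 1536-well plates, were treated the following day by pin tool with a single drug or with five library-drug doses (not always all listed) in √10 steps on top of a fixed anchor-drug dose. Cells were fixed and nuclei stained in one step after 5 days, and nuclei were counted. Relative viability is the nuclei count for treated wells divided by that for vehicle wells, reported as medians of duplicate plates.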
# Alpelisib + Decitabine = compound: Cc1nc(NC(=O)N2CCC[C@H]2C(N)=O)sc1-c1ccnc(C(C)(C)C(F)(F)F)c1 [Alpelisib] + Nc1ncn([C@H]2C[C@H](O)[C@@H](CO)O2)c(=O)n1 [Decitabine] (partner 2 µM)
# Procedure, shortened: as §1
# OSI-027 + Vorinostat = compound: COc1cccc2cc(-c3nc([C@H]4CC[C@H](C(=O)O)CC4)n4ncnc(N)c34)[nH]c12 [OSI-027] + O=C(CCCCCCC(=O)Nc1ccccc1)NO [Vorinostat] (partner 1 µM)
# Procedure, shortened: as §1
# Alpelisib + Pictilisib = compound: Cc1nc(NC(=O)N2CCC[C@H]2C(N)=O)sc1-c1ccnc(C(C)(C)C(F)(F)F)c1 [Alpelisib] + CS(=O)(=O)N1CCN(Cc2cc3nc(-c4cccc5[nH]ncc45)nc(N4CCOCC4)c3s2)CC1 [Pictilisib] (partner 1 µM)
# Procedure, shortened: as §1
Cell Line,relative viability (Vemurafenib + Dasatinib; first compound 0.03162 µM),relative viability (Vemurafenib + Dasatinib; first compound 0.1 µM),relative viability (Vemurafenib + Dasatinib; first compound 0.3162 µM),relative viability (Vemurafenib + Dasatinib; first compound 1 µM),relative viability (Alpelisib + Decitabine; first compound 0.04 µM),relative viability (Alpelisib + Decitabine; first compound 0.1265 µM),relative viability (Alpelisib + Decitabine; first compound 0.4 µM),relative viability (Alpelisib + Decitabine; first compound 1.265 µM),relative viability (Alpelisib + Decitabine; first compound 4 µM),relative viability (OSI-027 + Vorinostat; first compound 0.01 µM),relative viability (OSI-027 + Vorinostat; first compound 0.03162 µM),relative viability (OSI-027 + Vorinostat; first compound 0.1 µM),relative viability (OSI-027 + Vorinostat; first compound 0.3162 µM),relative viability (OSI-027 + Vorinostat; first compound 1 µM),relative viability (Alpelisib + Pictilisib; first compound 0.04 µM),relative viability (Alpelisib + Pictilisib; first compound 0.1265 µM),relative viability (Alpelisib + Pictilisib; first compound 0.4 µM),relative viability (Alpelisib + Pictilisib; first compound 1.265 µM),relative viability (Alpelisib + Pictilisib; first compound 4 µM)
NCI-H358,0.142,0.116,0.22,0.203,0.194,0.195,0.205,0.178,0.169,0.751,0.653,0.717,0.664,0.503,0.382,0.316,0.379,0.268,0.205
NCI-H441,0.565,0.663,0.838,0.542,0.244,0.215,0.271,0.22,0.224,0.837,0.77,0.757,0.741,0.431,0.438,0.448,0.547,0.382,0.41
NCI-H460,0.469,0.545,0.341,0.537,0.496,0.571,0.436,0.442,0.291,1.06,0.594,0.685,0.65,0.219,0.388,0.389,0.378,0.345,0.297
NCI-H520,0.188,0.189,0.203,0.197,0.422,0.531,0.481,0.442,0.412,0.729,0.712,0.693,0.557,0.368,0.244,0.316,0.318,0.304,0.289
NCI-H596,0.567,0.66,0.549,0.515,1,0.954,1.01,0.699,0.61,0.459,0.685,0.497,0.523,0.416,0.404,0.413,0.362,0.399,0.358
NCI-H647,0.16,0.198,0.0963,0.188,0.423,0.497,0.537,0.306,0.35,0.656,0.468,0.385,0.363,0.36,0.446,0.385,0.402,0.294,0.378
NCI-H650,0.392,0.52,,0.395,0.352,0.324,0.327,0.318,0.284,0.495,0.479,0.325,0.303,0.232,0.756,0.804,1.09,0.746,0.808
NCI-H661,0.829,0.59,0.54,0.938,0.56,0.586,0.576,0.474,0.495,0.806,0.801,0.759,0.717,0.458,0.374,0.367,0.475,0.506,0.346
NCI-H727,0.323,,0.724,0.421,0.973,0.859,0.881,0.854,0.828,1.08,1.06,1.11,1.23,1.03,0.302,0.462,0.404,0.325,0.373
NCI-H838,0.256,0.22,,0.325,0.405,0.422,0.508,0.438,0.359,0.65,0.646,0.632,0.55,0.459,0.439,0.471,0.427,0.47,0.434
NCI-H1355,0.671,0.703,0.466,0.745,0.41,0.386,0.328,0.328,0.297,0.648,0.632,0.622,0.475,0.3,0.444,0.568,0.436,0.521,0.425
NCI-H1395,0.415,0.411,,0.403,0.747,0.699,0.75,0.645,0.65,0.633,0.745,0.476,0.645,0.567,0.493,0.673,0.663,0.615,0.492
NCI-H1437,0.338,0.336,0.296,0.325,0.562,0.579,0.609,0.527,0.527,0.859,0.767,0.861,0.848,0.521,0.416,0.482,0.441,0.37,0.335
NCI-H1650,,0.301,,0.305,0.346,0.365,0.389,0.345,0.362,0.56,0.515,0.532,0.407,0.358,0.625,0.488,0.631,0.595,0.494
NCI-H1651,0.417,0.462,0.277,0.452,0.625,0.557,0.703,0.598,0.439,0.57,0.482,0.509,0.528,0.469,0.606,0.596,0.638,0.547,0.644
NCI-H1666,0.741,0.837,0.644,0.709,0.686,0.708,0.781,0.694,0.612,0.993,1.02,1.01,0.915,0.667,0.508,0.459,0.536,0.479,0.344
NCI-H1734,0.436,0.474,0.357,0.432,0.532,0.478,0.497,0.477,0.255,0.912,0.781,0.728,0.707,0.455,0.472,0.427,0.494,0.397,0.343

Cell Line,relative viability (Vemurafenib + Dasatinib; first compound 0.03162 µM),relative viability (Vemurafenib + Dasatinib; first compound 0.1 µM),relative viability (Vemurafenib + Dasatinib; first compound 0.3162 µM),relative viability (Vemurafenib + Dasatinib; first compound 1 µM),relative viability (Alpelisib + Decitabine; first compound 0.04 µM),relative viability (Alpelisib + Decitabine; first compound 0.1265 µM),relative viability (Alpelisib + Decitabine; first compound 0.4 µM),relative viability (Alpelisib + Decitabine; first compound 1.265 µM),relative viability (Alpelisib + Decitabine; first compound 4 µM),relative viability (OSI-027 + Vorinostat; first compound 0.01 µM),relative viability (OSI-027 + Vorinostat; first compound 0.03162 µM),relative viability (OSI-027 + Vorinostat; first compound 0.1 µM),relative viability (OSI-027 + Vorinostat; first compound 0.3162 µM),relative viability (OSI-027 + Vorinostat; first compound 1 µM),relative viability (Alpelisib + Pictilisib; first compound 0.04 µM),relative viability (Alpelisib + Pictilisib; first compound 0.1265 µM),relative viability (Alpelisib + Pictilisib; first compound 0.4 µM),relative viability (Alpelisib + Pictilisib; first compound 1.265 µM),relative viability (Alpelisib + Pictilisib; first compound 4 µM)
NCI-H1755,0.396,0.406,0.243,0.43,0.661,0.69,0.778,0.678,0.575,0.72,0.855,0.655,0.711,0.472,0.451,0.309,0.427,0.456,0.363
NCI-H1793,0.415,,0.237,0.307,0.539,0.466,0.449,0.388,0.275,0.713,0.777,0.444,0.377,0.281,0.363,0.486,0.432,0.328,0.314
NCI-H1915,0.294,0.343,0.267,0.358,0.267,0.285,0.255,0.265,0.251,0.542,0.502,0.479,0.426,0.34,0.925,0.987,1.02,0.908,0.766
NCI-H1944,0.198,0.189,0.192,0.199,0.429,0.44,0.413,0.37,0.384,0.571,0.543,0.575,0.431,0.378,0.331,0.386,0.349,0.344,0.336
NCI-H1975,0.359,0.339,0.206,0.378,0.39,0.357,0.387,0.366,0.268,0.722,0.647,0.672,0.657,0.496,0.28,0.297,0.299,0.273,0.248
NCI-H1993,0.298,,0.694,0.621,0.547,0.561,0.592,0.494,0.671,0.86,0.967,0.717,0.474,0.449,0.825,0.803,0.767,0.696,0.918
NCI-H2009,0.294,0.278,0.171,0.254,0.35,0.458,0.398,0.389,0.354,0.735,0.718,0.708,0.675,0.588,0.805,0.773,1.02,0.767,0.52
NCI-H2023,0.507,0.506,0.444,0.489,0.205,0.188,0.234,0.245,0.183,0.7,0.698,0.526,0.581,0.34,0.203,0.26,0.253,0.207,0.19
NCI-H2085,0.244,0.273,0.515,0.256,0.601,0.524,0.538,0.574,0.467,0.714,0.73,0.76,0.648,0.549,0.503,0.549,0.518,0.427,0.426
NCI-H2087,0.751,0.789,,0.897,0.311,0.203,0.325,0.26,0.135,0.971,0.769,0.613,0.815,0.161,0.801,0.847,1.01,0.827,0.659
NCI-H2126,0.562,0.584,,0.537,0.586,0.576,0.607,0.454,0.428,0.703,0.682,0.692,0.627,0.586,0.499,0.506,0.496,0.491,0.501
NCI-H2170,0.523,0.214,0.639,0.54,0.44,0.424,0.477,0.439,0.401,0.779,0.814,0.806,0.662,0.454,0.322,0.328,0.331,0.343,0.283
NCI-H2347,0.346,0.311,0.692,0.346,0.641,0.635,0.657,0.539,0.571,0.556,0.403,0.55,0.447,0.339,0.757,0.776,0.571,0.648,0.554
NCI-H2405,0.213,0.231,,0.231,0.756,0.731,0.699,0.517,0.58,1.04,1.02,0.899,0.831,0.549,0.443,0.502,0.527,0.488,0.39
NCI-H3122,0.652,0.598,0.841,0.712,0.371,0.454,0.374,0.278,0.209,0.991,1.09,1.06,0.93,0.732,0.622,0.69,0.572,0.58,0.53
PC-3 [JPC-3],0.921,,0.9,1.08,0.798,0.757,0.887,0.813,0.79,0.649,0.787,0.454,0.56,0.527,0.76,0.715,0.737,0.767,0.676
PC-14,0.229,,0.228,0.267,0.244,0.243,0.248,0.196,0.221,0.734,0.72,0.585,0.698,0.445,0.703,0.858,0.898,0.6,0.611
